Results: PubChem BioAssay (NCI)
Where “and” joins values, the source holds several entries; their conditions need not be identical. Identical values can stand only once.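 Tested at 5 concentrations; 48 h exposure; 96-well plates; endpoints linearly interpolated, else capped at highest concentration. At the GI50, growth is halved. TGI marks complete inhibition of growth.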

How the values were obtained:
Test in all cases: growth of human tumour cells (NCI), 48 h
T-47D breast = tested on: T-47D breast
MDA-MB-435 = tested on: MDA-MB-435
MCF7 breast = tested on: MCF7 breast
SK-MEL-28 melanoma = tested on: SK-MEL-28 melanoma
SW-620 colon = tested on: SW-620 colon
ACHN renal = tested on: ACHN renal
OVCAR-5 ovarian = tested on: OVCAR-5 ovarian
HS 578T breast = tested on: HS 578T breast
HOP-62 NSCLC = tested on: HOP-62 NSCLC
SK-MEL-2 melanoma = tested on: SK-MEL-2 melanoma

| Structure (SMILES) | GI50 (T-47D breast) | TGI (T-47D breast) | GI50 (MDA-MB-435) | TGI (MDA-MB-435) | GI50 (MCF7 breast) | TGI (MCF7 breast) | GI50 (SK-MEL-28 melanoma) | TGI (SK-MEL-28 melanoma) | GI50 (SW-620 colon) | TGI (SW-620 colon) | GI50 (ACHN renal) | TGI (ACHN renal) | GI50 (OVCAR-5 ovarian) | TGI (OVCAR-5 ovarian) | GI50 (HS 578T breast) | TGI (HS 578T breast) | GI50 (HOP-62 NSCLC) | TGI (HOP-62 NSCLC) | GI50 (SK-MEL-2 melanoma) | TGI (SK-MEL-2 melanoma) |
| --- | --- | --- | --- | --- | --- | --- | --- | --- | --- | --- | --- | --- | --- | --- | --- | --- | --- | --- | --- | --- |
| COCCn1c(Nc2ccc(C(=O)NO)cc2)nc2ccccc21 | 3.03 µM | > 100 µM | 2.89 µM | 11.4 µM | 5.45 µM | > 100 µM | 4.94 µM | 21 µM | 2.34 µM | 7.14 µM | 2.85 µM | 12.9 µM | 1.69 µM | 8.23 µM | 3.43 µM | 34.3 µM | 4.58 µM | 55.1 µM | 5.33 µM | 50.3 µM |
| CCCCCCCCCCCC(c1ccccc1)[N+](C)(C)C (centres undefined) | 1.9 µM | 9.79 µM | 1.35 µM | 3.05 µM | 1.44 µM | 3.19 µM | 1.49 µM | 3.31 µM | 1.5 µM | 3.86 µM | 4.93 µM | 26.1 µM | 0.998 µM | 4.97 µM | 1.16 µM | 3.28 µM | 1.52 µM | 3.07 µM | 1.51 µM | 3.06 µM |
| CN(C)CCN1C(=O)c2cccc3cc(N)cc(c23)C1=O | 3.66 µM | > 57.1 µM and 32.4 µM | 3.86 µM | 15.7 µM and 9.98 µM | 1.38 µM | 22.2 µM and 18.5 µM | – | 27.8 µM and 19.6 µM | 2.14 µM | 24.3 µM and 15.9 µM | 1.33 µM | 4.47 µM and 3.63 µM | 3.98 µM | 48.7 µM and 13.8 µM | 10.4 µM | 50.9 µM and 21.2 µM | 3.08 µM | 18.8 µM and 11.4 µM | 3.73 µM | 13 µM and 9.4 µM |
| O=C(c1ccccc1)c1nc2ccc(Cl)cc2cc1C(Br)Br | – | 1.12 µM | – | 1.14 µM | – | 1.96 µM | – | 0.814 µM | – | 0.905 µM | – | 0.662 µM | – | 2 µM | – | 0.59 µM | – | 1.94 µM | – | 1.88 µM |
| CC(C)CC(NC(=O)C(O)C(N)Cc1ccccc1)C(=O)O (centres undefined) | – | > 100 µM | – | > 100 µM | – | > 100 µM | – | > 100 µM | – | > 100 µM | – | > 100 µM | – | > 100 µM | – | > 100 µM | – | > 100 µM | – | > 100 µM |
| CC(C)(Sc1cc(C(C)(C)C)c(O)c(C(C)(C)C)c1)Sc1cc(C(C)(C)C)c(O)c(C(C)(C)C)c1 | – | > 100 µM | – | > 100 µM | – | > 100 µM | – | > 100 µM | – | > 100 µM | – | > 100 µM | – | > 100 µM | – | > 100 µM | – | > 100 µM | – | > 100 µM |
| Cc1cc(NC(=O)NCCCOc2ccc(N3C(N)=NC(N)=NC3(C)C)cc2Cl)ccc1S(=O)(=O)F | 4.82 µM | 61.9 µM | 0.577 µM | 33.2 µM | 0.614 µM | 22.5 µM | 1.93 µM | 28.5 µM | 0.373 µM | > 100 µM | 11.3 µM | > 100 µM | 0.883 µM | > 100 µM | 2.77 µM | 35 µM | 2.24 µM | 19.6 µM | 2.43 µM | 65.9 µM |
| COc1cccc(C2CC(C)(O)Oc3cc4c(cc32)OCO4)c1 (centres undefined) | – | > 100 µM | – | 15.2 µM | – | > 100 µM | – | > 100 µM | – | > 100 µM | – | > 100 µM | – | > 100 µM | – | 49.6 µM | – | 74.4 µM | – | 43.6 µM |
| Clc1ccc(NCNC2Nc3ccccc3N2)cc1Cl | – | > 100 µM | – | 93.2 µM | – | 29.1 µM | – | > 100 µM | – | > 100 µM | – | > 100 µM | – | > 100 µM | – | > 100 µM | – | > 100 µM | – | 79.6 µM |
| CC[C@@H]1C(=O)N(C)c2cnc(Nc3ccc(C(=O)NC4CCC(N5CCN(CC6CC6)CC5)CC4)cc3OC)nc2N1C(C)C (some centres undefined) | 0.155 µM and 0.113 µM | > 10 µM and 21.9 µM | < 0.01 µM | 0.0134 µM | 0.00507 µM and < 0.01 µM | 2.01 µM and 2.62 µM | 0.0737 µM and 0.0669 µM | 2.64 µM and 3.16 µM | 0.00561 µM and 0.0102 µM | > 10 µM and 11.1 µM | 0.305 µM and 0.222 µM | > 10 µM and 13.6 µM | 0.0146 µM and 0.0502 µM | > 10 µM and 16.9 µM | 0.0323 µM and 0.111 µM | 1.97 µM | 0.0208 µM and 0.034 µM | > 8.64 µM and 3.93 µM | 0.0221 µM and 0.0351 µM | 1.97 µM and 2.27 µM |
| CN1CCC2(CC1)C(=O)Nc1cc(NC(=O)c3ccc4c(c3)C[C@@H]3C(C)(C)[C@H](O)[C@H](F)C[C@@]3(C)O4)ccc12 | 5.67 µM | 28.8 µM | 1.31 µM | 13 µM | 0.0925 µM | 21.4 µM | 1.53 µM | 14.5 µM | 0.588 µM | 11.5 µM | 8.59 µM | > 100 µM | 12.3 µM | > 100 µM | 0.0232 µM | 2.24 µM | 1.04 µM | 23 µM | 11.3 µM | 32.3 µM |
| CCOC(=O)c1sc2nc(=S)[nH]c(NC(N)=S)c2c1C | 11.3 µM | 37 µM | 30.5 µM | 70.3 µM | 16.5 µM | 37.2 µM | 19 µM | 41.6 µM | 23.3 µM | 55.1 µM | 15.7 µM | 32.8 µM | 26.1 µM | 75.7 µM | 26 µM | 59.7 µM | 21 µM | 49.7 µM | 46.7 µM | > 100 µM |
| O=C(O)c1c2c(c(O)c3c1CN(C1CCCCC1)CO3)OCN(C1CCCCC1)C2 | – | > 100 µM | – | > 100 µM | – | 39.2 µM | – | > 100 µM | – | 52.5 µM | – | > 100 µM | – | > 100 µM | – | > 100 µM | – | > 100 µM | – | > 100 µM |
| COc1ccc(CC(C)NCC(O)c2ccc(O)c(NC=O)c2)cc1 (centres undefined) | – | > 100 µM | – | > 100 µM | – | > 100 µM | – | > 100 µM | – | > 100 µM | – | > 100 µM | – | > 100 µM | – | > 100 µM | – | > 100 µM | – | > 100 µM |
| CN1CCN(c2cc(F)c(NC3=C(Cl)C(=O)c4ncccc4C3=O)c(F)c2)CC1 | 1.82 µM | 4.61 µM | 1.66 µM | 3.2 µM | 1.07 µM | 2.87 µM | 1.88 µM | 3.36 µM | 1.46 µM | 3.17 µM | 1.53 µM | 2.9 µM | 1.82 µM | 3.6 µM | 2.02 µM | 5.67 µM | 2.06 µM | 5.18 µM | 1.77 µM | 3.6 µM |
